ChEMBL document CHEMBL3822368, “Further optimization of the M1 PAM VU0453595: Discovery of novel heterobicyclic core motifs with improved CNS penetration” (Bioorg Med Chem Lett, 2016)
Where a chain is given by its changes, count along the chain named. pEC50: −log10 of the molar value.

Experiments:
[1] = target: T1, Muscarinic acetylcholine receptor M1 (Homo sapiens, UniProt P11229); test: Positive allosteric modulation at human muscarinic acetylcholine receptor M1 expressed in CHO cells assessed as potentiation of acetylcholine-induced calcium mobilization; type: functional, cell-based
T1 sequence (P11229 whole entry): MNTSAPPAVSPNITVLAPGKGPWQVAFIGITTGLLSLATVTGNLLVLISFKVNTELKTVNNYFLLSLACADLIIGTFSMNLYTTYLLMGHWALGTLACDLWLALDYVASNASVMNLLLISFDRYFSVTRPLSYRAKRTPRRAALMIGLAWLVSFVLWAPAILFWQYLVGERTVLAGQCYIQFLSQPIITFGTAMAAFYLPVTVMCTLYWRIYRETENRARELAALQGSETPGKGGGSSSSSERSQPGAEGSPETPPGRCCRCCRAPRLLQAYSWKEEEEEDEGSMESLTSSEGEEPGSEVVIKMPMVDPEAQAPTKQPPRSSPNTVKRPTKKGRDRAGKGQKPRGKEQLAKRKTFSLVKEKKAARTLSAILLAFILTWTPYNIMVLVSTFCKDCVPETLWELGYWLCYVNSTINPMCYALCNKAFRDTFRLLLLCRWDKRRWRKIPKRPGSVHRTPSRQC

[2] = target: T1, Muscarinic acetylcholine receptor M1; test: Positive allosteric modulation at human muscarinic acetylcholine receptor M1 assessed as effect on beta-arrestin recruitment
CHO = test: Selectivity ratio of EC50 for human muscarinic acetylcholine receptor M1 to EC50 for rat muscarinic acetylcholine receptor M1 expressed in CHO cells; type: cell-based
[3] = target: T1, Muscarinic acetylcholine receptor M1; test: Positive allosteric modulation at human muscarinic acetylcholine receptor M1 assessed as effect on receptor internalization
[4] = Brain to plasma partition coefficient in Sprague-Dawley rat at 0.20 to 0.25 mg/kg, iv administered through cassette dosing after 0.25 hrs; type: ADME, organism-based; conditions: for Kp at 0.25 h: Sprague-Dawley, brain and plasma
[5] = target: T2, Muscarinic acetylcholine receptor M1 (Rattus norvegicus, UniProt P08482); test: Positive allosteric modulation at rat muscarinic acetylcholine receptor M1 expressed in CHO cells assessed as potentiation of acetylcholine-induced calcium mobilization; type: functional, cell-based
T2 sequence (P08482 whole entry): T1 sequence (P11229 whole entry) with A5V, T254S, P309S, R320K, A337G, I413V

[6] = target: T3, Muscarinic acetylcholine receptor M1 (Homo sapiens) (UniProt P11229); test: Positive allosteric modulation at human muscarinic acetylcholine receptor M1 assessed as effect on beta-arrestin recruitment relative to acetylcholine
T3 sequence (whole entry): T1 sequence (P11229 whole entry)

[7] = target: T4, Muscarinic acetylcholine receptor M1 (Rattus norvegicus) (UniProt P08482); test: Positive allosteric modulation at rat muscarinic acetylcholine receptor M1 expressed in CHO cells assessed as potentiation of acetylcholine-induced calcium mobilization in relative to acetylcholine; type: functional, cell-based
T4 sequence (whole entry): T1 sequence (P11229 whole entry) with A5V, T254S, P309S, R320K, A337G, I413V

[8] = target: T3, Muscarinic acetylcholine receptor M1 (Homo sapiens); test: Positive allosteric modulation at human muscarinic acetylcholine receptor M1 expressed in CHO cells assessed as potentiation of acetylcholine-induced calcium mobilization relative to acetylcholine; type: functional, cell-based
[9] = Fraction unbound in rat plasma; type: ADME, cell-free
[10] = Fraction unbound in human plasma; type: ADME, cell-free
[11] = Unbound brain to plasma partition coefficient in Sprague-Dawley rat at 0.20 to 0.25 mg/kg, iv administered through cassette dosing after 0.25 hrs; type: ADME, organism-based; conditions: brain and plasma; for Kp uu at 0.25 h: read-out: K(p,uu,brain)
[12] = Fraction unbound in rat brain homogenate; type: ADME, tissue-based

## Cn1cc(-c2ccc(CN3Cc4ncccc4C3=O)c(F)c2)cn1
[1]
  pEC50: 5.72
[2]
  pEC50: 5.59
CHO
  Ratio EC50: 3
[3]
  pEC50: < 5.00
[4]
  Kp at 0.25 h: 0.3
[5]
  pEC50: 5.49
[6]
  %max: 57%
[7]
  %max: 75%
[8]
  %max: 79%

## Cn1cc2c(-c3cc(F)c(Cn4cnc5cnccc5c4=O)c(F)c3)cccc2n1
[1]
  pEC50: 5.28
[2]
  pEC50: 6.01
CHO
  Ratio EC50: 2
[3]
  pEC50: < 5.00
[4]
  Kp at 0.25 h: 0.77
[5]
  pEC50: 5.33
[6]
  %max: 33%
[7]
  %max: 73%
[9]
  fraction unbound: 0.01
[10]
  fraction unbound: 0.01
[8]
  %max: 65%
[11]
  Kp uu at 0.25 h: 0.6

## Cn1cc2c(-c3cc(F)c(CN4CCn5nccc5C4=O)c(F)c3)cccc2n1
[5]
  pEC50: < 5.00

## Cn1cc2c(-c3cc(F)c(CN4CCc5ncccc5C4=O)c(F)c3)cccc2n1
[1]
  pEC50: < 5.00
CHO
  Ratio EC50: 2
[4]
  Kp at 0.25 h: 0.52
[5]
  pEC50: 5.37
[7]
  %max: 52%
[9]
  fraction unbound: 0.01
[10]
  fraction unbound: 0.01
[11]
  Kp uu at 0.25 h: 0.49

## Cn1cc2c(-c3cc(F)c(Cn4c(=O)cnc5ccccc54)c(F)c3)cccc2n1
[1]
  pEC50: < 5.00
CHO
  Ratio EC50: 2
[4]
  Kp at 0.25 h: 2.16
[5]
  pEC50: 5.31
[7]
  %max: 67%
[9]
  fraction unbound: 0.01
[10]
  fraction unbound: 0.01
[11]
  Kp uu at 0.25 h: 0.77

## O=c1c2ccncc2ncn1Cc1c(F)cc(-c2ccc3cnccc3c2)cc1F
[4]
  Kp at 0.25 h: 3.1
[5]
  pEC50: 5.21
[9]
  fraction unbound: 0.03
[10]
  fraction unbound: 0.03
[11]
  Kpuu at 0.25 h: 2.7

## Cn1cc2cc(-c3cc(F)c(CN4CCn5nccc5C4=O)c(F)c3)ccc2n1
[4]
  Kp at 0.25 h: 0.4
[5]
  pEC50: 5.77
[12]
  fraction unbound: 0.098
[7]
  %max: 50%
[9]
  fraction unbound: 0.06
[10]
  fraction unbound: 0.05
[11]
  Kpuu at 0.25 h: 0.7

## Cn1cnc2ccc(-c3cc(F)c(Cn4cnc5cnccc5c4=O)c(F)c3)cc21
[4]; brain, 0.25 h, BLD = below limit of detection
  Kp: BLD
[5]
  pEC50: 5.28
[9]
  fraction unbound: 0.04
[10]
  fraction unbound: 0.06

## Cn1cc2cc(-c3cc(F)c(Cn4c(=O)cnc5ncccc54)c(F)c3)ccc2n1
[4]
  Kp at 0.25 h: 1.64
[5]
  pEC50: 5.55
[9]
  fraction unbound: 0.04
[10]
  fraction unbound: 0.04
[11]
  Kpuu at 0.25 h: 1.1

## Cn1cc2c(-c3cc(F)c(Cn4cnc5ccccc5c4=O)c(F)c3)cccc2n1
[1]
  pEC50: < 5.00
CHO
  Ratio EC50: 2
[4]
  Kp at 0.25 h: 0.79
[5]
  pEC50: 5.33
[7]
  %max: 45%
[9]
  fraction unbound: 0.01
[10]
  fraction unbound: 0.01
[11]
  Kp uu at 0.25 h: 0.32

## Cn1cc2c(-c3cc(F)c(CN4C=CC5=NCCN5C4=O)c(F)c3)cccc2n1
[1]
  pEC50: < 5.00
CHO
  Ratio EC50: 2
[4]
  Kp at 0.25 h: 0.35
[5]
  pEC50: 5.77
[7]
  %max: 50%
[9]
  fraction unbound: 0.08
[10]
  fraction unbound: 0.04
[11]
  Kp uu at 0.25 h: 0.3
